The source of these data is PubChem BioAssay (NCI).

SMILES strings stand for the structures.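 Following 48 hours of exposure in 96-well plates, responses at five concentrations were used to interpolate endpoints linearly. Definition used: TGI = concentration required for complete inhibition of growth.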

Holding throughout (test): inhibition of tumour cell growth, NCI panel, 48 h
The subject of test [1] is A549 NSCLC.
The test system of test [2] is CCRF-CEM leukemia.
The subject of test [3] is COLO 205 colon.
The test system of test [4] is HCT-15 colon.
Test [5] deals with HT29 colon.
Test [6] deals with KM12 colon.
Test [7] has as its system LOX IMVI melanoma.
In test [8] the test system is NCI-H226 lung.
For test [9], the system named is NCI-H522 lung.
The test system of test [10] is PC-3 prostate.
The subject of test [11] is SF-295 CNS.
The subject of test [12] is SK-MEL-2 melanoma.
The test system of test [13] is SK-MEL-5 melanoma.
The test system of test [14] is SN12C renal.
Test [15] concerns SNB-19 CNS.
For test [16], the system named is SR leukemia.
In test [17] the test system is U251 CNS.
For test [18], the system named is RPMI-8226 leukemia.
Test [19] concerns SF-268 CNS.
The subject of test [20] is HS 578T breast.

Regarding `COc1ccc(N[C@H](CS(=O)c2ccc(C)cc2)C(F)(F)F)cc1` (stereo partly drawn), the TGI in test [1], in [2], in test [3], in [4], in [5] and in [6] was > 100 µM each time. The TGI in test [7], in [8], in test [9], in test [10], in test [11] and in test [12] was > 100 µM throughout. Moreover, the TGI in test [13], in [14], in [15], in test [16] and in test [17] was > 100 µM in each case.

As to `CS(=O)(=O)c1ccc(C(=O)O[C@@H]2C(=O)N3CC[C@H]4OC(O)[C@@H]2[C@H]43)cc1` (stereo partly drawn), the TGI in [1], in [3], in [4], in test [5], in test [6] and in test [7] was > 100 µM each time. Moreover, the TGI in test [8], in [10], in test [18], in test [19], in test [11] and in test [12] was > 100 µM throughout. Moreover, the TGI in test [13], in [15], in [16] and in [17] was > 100 µM in each case.

Take `C=CCC1(CN(C)C)CC/C(=C\c2cc(OC)c(OC)c(OC)c2)C1=O` (stereo not drawn): the TGI in test [1] is > 100 µM; in [2] it was 51.9 µM; in [3], 31.3 µM; in test [4], 35.2 µM; in [5] it was 40.6 µM; in [6], 32.8 µM. The TGI in test [7] was 43 µM; in [8], > 100 µM; in [9] it was 29.4 µM; in test [18], 59.6 µM; in [19], 51.6 µM; in test [11], 92.8 µM. Also, the TGI in [12] was > 100 µM; in test [13] it was 35.3 µM; in test [14] it was 54.8 µM; in [15] it was > 100 µM; in [16] it was 49.1 µM; in test [17] it was 59.5 µM.

For `[N-]=[N+]=C1C(=O)C2CC3CC1CC2C3` (stereo not drawn), the TGI in test [1], in [2], in test [3], in test [4], in [5] and in [6] was > 100 µM throughout. The TGI in test [7], in [8], in test [9], in test [18], in test [19] and in [11] was > 100 µM in each case. Further, the TGI in test [12], in test [13], in test [14], in test [15], in [16] and in [17] was > 100 µM in each case.

Regarding `Cc1cc(OP2(=O)NCc3ccncc3O2)ccc1Cl` (stereo not drawn), the TGI in [1], in [2], in test [3], in [4], in test [5] and in [6] was > 100 µM each time. The TGI in test [7], in test [8], in test [10], in test [18], in test [11] and in test [12] was > 100 µM in each case. The TGI in test [13], in [14], in [15], in test [16] and in test [17] was > 100 µM throughout.

In the case of `O=C1C=CC(=O)c2c(O)c(NCCN3CCOCC3)c(Cl)c(O)c21`, the TGI in test [1] was determined as 4.96 µM; in [2], 4.46 µM; in test [3] it was 3.01 µM; in test [4], 3.87 µM; in test [20] it was 6.54 µM; in test [5] it was 4.7 µM. Further, the TGI in [6] was > 10 µM; in test [7], 2.85 µM; in test [8], > 10 µM; in test [10] it was 7.15 µM; in test [19], 6.12 µM; in test [11], 3.41 µM. Besides, the TGI was 2.35 µM in test [13], 3.23 µM in [14], 3.23 µM in test [15] and 6.97 µM in [17].

On to `OC(c1cc2ccccc2[nH]1)C(O)(c1cc2ccccc2[nH]1)c1cc2ccccc2[nH]1` (stereo not drawn), for which the TGI in test [1] was 63 µM; in test [2], > 245 µM; in test [3] it was 8.85 µM; in [4], 33 µM; in test [5] it was 36.2 µM; in [6], > 245 µM. Further, the TGI in test [7] was 41.8 µM; in test [8], 40.4 µM; in [9], 37.5 µM; in test [18] it was > 245 µM; in [19], 85.2 µM; in test [11] it was 31.3 µM. Further, the TGI was 50 µM in test [12]; 39.8 µM in test [13]; 11.4 µM in test [14]; > 245 µM in test [15]; > 245 µM in [16]; 78.4 µM in test [17].

Consider `O=C1C2CCCC2N1Cc1ccccc1` (stereo not drawn), for which the TGI in test [2], in [3], in test [4], in test [20], in test [5] and in test [6] was > 100 µM in each case. Besides, the TGI in [7], in test [8], in test [9], in test [18], in test [19] and in test [11] was > 100 µM each time. Besides, the TGI in test [13] and in [14] was > 100 µM throughout.

As for `O=C(O)C(Cc1ccccc1)N=Cc1nc(-c2ccccc2)oc1O` (stereo not drawn), the TGI in [1], in test [2], in test [3], in test [4], in [5] and in test [6] was > 100 µM throughout. Further, the TGI in [7], in [8], in test [9], in test [18], in test [19] and in [11] was > 100 µM each time. The TGI in test [12], in [13], in test [14], in [15], in test [16] and in test [17] was > 100 µM each time.

`Cc1ccc(NC(=O)C(=O)C2C(=O)NC(=O)NC2=O)c(C)c1`: the TGI in test [1] was > 100 µM; in test [2], > 100 µM; in test [3] it was 26.8 µM; in test [4], > 100 µM; in test [5], > 100 µM; in [6] it was > 100 µM. The TGI in test [7] is > 100 µM; in test [8] it was 37.8 µM; in [9] it was > 100 µM; in [18] it was > 100 µM; in test [19], > 100 µM; in test [11] it was > 100 µM. Further, the TGI in test [12] was > 100 µM; in test [13], > 100 µM; in test [14] it was 28.2 µM; in test [15], > 100 µM; in test [16], > 100 µM; in [17], > 100 µM.

On to `CO/S(=N/S(=O)(=O)c1ccccc1)c1ccccc1[N+](=O)[O-]` (stereo not drawn), for which the TGI in test [1], in [2], in test [3], in test [4], in test [5] and in [6] was > 100 µM each time. Besides, the TGI in test [7], in [8], in test [9], in test [18], in test [19] and in test [11] was > 100 µM throughout. For the same compound, the TGI in test [12], in [13], in test [14], in test [15], in [16] and in [17] was > 100 µM throughout.

Turning to `CC(=O)OCCCCn1nncc1Cn1ccc(=O)n(Cc2cnnn2CCCCOC(C)=O)c1=O`, the TGI in test [1] was > 100 µM; in test [2], 2.61 µM; in test [3], > 100 µM; in test [4] it was > 100 µM; in test [20] it was > 100 µM; in [6] it was > 100 µM. Besides, the TGI in [7], in test [8], in test [10], in test [18], in [19] and in test [11] was > 100 µM in each case. Also, the TGI in test [12], in [13], in test [14], in [15] and in test [17] was > 100 µM each time.

On to `CCCC(=O)Oc1c2ccsc2c(OC(=O)CCC)c2ccsc12`, for which the TGI is 6.84 µM in test [1]; 9.13 µM in test [2]; 19.7 µM in [3]; 4.59 µM in test [4]; 12 µM in test [5]; 13.8 µM in test [6]. Moreover, the TGI in test [7] amounted to 10.7 µM; in [8], 7.15 µM; in test [9], 4.85 µM; in test [10], 3.52 µM; in test [18] it was 5.48 µM; in [19], 10.7 µM. Moreover, the TGI was determined as 0.885 µM in test [11]; 1.86 µM in test [12]; 2.98 µM in test [14]; 5.28 µM in test [15]; 7.32 µM in [16]; 4.4 µM in [17].
